Laboratory results from US9296769B2, “Tenofovir alafenamide hemifumarate” (Gilead Sciences, Inc., priority 2011, dated 2016).
Where two headings read alike, the source gives them in different places.

Columns and labels:
[1] = Excerpt: Chemical stability of the hemifumarate form of tenofovir alafenamide was compared with the monofumarate form. […] Conditions evaluated include temperature, relative humidity (RH), and the open or closed state of the container cap.
[2] = remark: listed apart in the source
Experimental: DVS analysis was conducted using 4.951 mg of tenofovir alafenamide hemifumarate. The material was kept at 25° C. in nitrogen at humidities ranging from 10% to 90% relative humidity; each step was equilibrated for 120 minutes.

[3] = for Thermodynamic stability: solvents such as ACN, toluene, MTBE, acetone, THF, 2-methyl THF
[4] = 40° C./75% RH Cap Closed, 0 weeks
[5] = 40° C./75% RH Cap Closed, 1 week
[6] = 40° C./75% RH Cap Closed, 2 weeks
[7] = 40° C./75% RH Cap Closed, 4 weeks
[8] = 40° C./75% RH Cap Closed, 8 weeks
[9] = 40° C./75% RH Cap Open, 0 weeks
[10] = 40° C./75% RH Cap Open, 2 weeks
[11] = 40° C./75% RH Cap Open, 4 weeks
[12] = 40° C./75% RH Cap Open, 8 weeks

SMILES | % TA Area Normalized [1, 4] [%] | % Total Deg. Products [1, 4] [%] | % TA Area Normalized [1, 5] [%] | % Total Deg. Products [1, 5] [%] | % TA Area Normalized [1, 6] [%] | % Total Deg. Products [1, 6] [%] | % TA Area Normalized [1, 7] [%] | % Total Deg. Products [1, 7] [%] | % TA Area Normalized [1, 8] [%] | % Total Deg. Products [1, 8] [%] | % TA Area Normalized [1, 9] [%] | % Total Deg. Products [1, 9] [%] | % TA Area Normalized ([1]; 40° C./75% RH Cap Open, 1 week) [%] | % Total Deg. Products ([1]; 40° C./75% RH Cap Open, 1 week) [%] | % TA Area Normalized [1, 10] [%] | % Total Deg. Products [1, 10] [%] | % TA Area Normalized [1, 11] [%] | % Total Deg. Products [1, 11] [%] | % TA Area Normalized [1, 12] [%] | % Total Deg. Products [1, 12] [%] | other results
CC(C)OC(=O)[C@H](C)N[P@](=O)(CO[C@H](C)Cn1cnc2c(N)ncnc21)Oc1ccccc1 [Hemifumarate form, 9-[(R)-2-[[(S)-[[(S)-1-(isopropoxycarbonyl)ethyl]amino]phenoxyphosphinyl]methoxy]propyl]adenine] | 98.4 | 0.05 | 98.4 | 0.14 | 98.5 | 0.14 | 98.4 | 0.25 | 98.0 | 0.49 | 98.4 | 0.05 | 98.5 | 0.15 | 98.5 | 0.14 | 98.4 | 0.26 | 98.1 | 0.50 | % TA Area Normalized ([1]; 70° C. Cap Closed, 0 weeks): 98.4%; % Total Deg. Products ([1]; 70° C. Cap Closed, 0 weeks): 0.05%; % TA Area Normalized ([1]; 70° C. Cap Closed, 2 weeks): 98.5%; % Total Deg. Products ([1]; 70° C. Cap Closed, 2 weeks): 0.22%; % TA Area Normalized ([1]; 70° C. Cap Closed, 4 weeks): 98.4%; % Total Deg. Products ([1]; 70° C. Cap Closed, 4 weeks): 0.33%; Hygroscopicity ([2]; 25° C. in nitrogen, 10% to 90% relative humidity): nonhygroscopic; Water absorbed ([2]; 25° C., relative humidity of 90%): 0.65%; Thermodynamic stability ([3]; ethyl acetate, listed as tenofovir alafenamide hemifumarate): thermodynamically stable in most solvents
CC(C)OC(=O)[C@H](C)N[P@](=O)(CO[C@H](C)Cn1cnc2c(N)ncnc21)Oc1ccccc1 [Monofumarate form, 9-[(R)-2-[[(S)-[[(S)-1-(isopropoxycarbonyl)ethyl]amino]phenoxyphosphinyl]methoxy]propyl]adenine] | 97.1 | 0.69 | 97.0 | 0.87 | 96.6 | 1.18 | 96.4 | 1.49 | 95.4 | 2.36 | 97.1 | 0.69 | 96.9 | 0.90 | 96.6 | 1.10 | 96.2 | 1.67 | 95.0 | 2.74 | % TA Area Normalized ([1]; 70° C. Cap Closed, 0 weeks): 97.1%; % Total Deg. Products ([1]; 70° C. Cap Closed, 0 weeks): 0.69%; % TA Area Normalized ([1]; 70° C. Cap Closed, 2 weeks): 96.2%; % Total Deg. Products ([1]; 70° C. Cap Closed, 2 weeks): 1.83%; % TA Area Normalized ([1]; 70° C. Cap Closed, 4 weeks): 93.3%; % Total Deg. Products ([1]; 70° C. Cap Closed, 4 weeks): 4.78%; Form conversion when suspended in solvent ([3]; ACN, ethyl acetate, MTBE and acetone): partially converts to the hemifumarate form; Form conversion when suspended in solvent ([3]; THF and 2-methyl THF): fully converts to the hemifumarate form; Thermodynamic stability ([3]; ethyl acetate): not thermodynamically stable
